From patent publication US10981911B2, “Imidazopyrrolopyridine as inhibitors of the JAK family of kinases” (Janssen Pharmaceutica NV, priority 2016, dated 2021)

Tests used:
Format in all cases: biochemical
Tyk2-JH1JH2 = Tyk2-JH1JH2 (Homo sapiens (Human), UniProt P29597, C1142A/C936A); assay: Enzymatic inhibition assay (RapidFire HTMS), Tyk2; conditions: 50 μM ATP, 200 μM substrate
From the text: (§1) LC/MS grade Water and Acetonitrile (ACN), were purchased from HoneyWell, Burdick & Jackson (Muskegon, Mich., USA). Dimethylsulfoxide 99.8% (DMSO) and Trifluoroacetic Acid 99.5% (TFA) were purchased from EMD Chemical (Gibbstown, N.J., USA). Adenosine triphosphate (ATP), 4-Morpholinepropanesulfonic acid (MOPS), Magnesium chloride (MgCl2), ethylenediaminetetraacetic acid (EDTA), dithiothreitol (DTT), formic acid >95% (FA) and Tween-20 were purchased from Sigma (St Louis, Mo., USA). 384-well polypropylene plates, Cat #781280 were purchased from Greiner (Monroe, N.C.), RapidFire™ cartridge A C4 Column (Agilent Technologies, Santa Clara, Calif.).
(§2) The HTMS experiments were performed in positive ionization mode on a RapidFire 300 instrument (Agilent Technologies, Santa Clara, Calif.), coupled with an ABSiex QTrap 4000 system with an Electrospray Ionization source (RF-MS) (Concord, ON, Canada). […] The entire system was operated using the RapidFire software interfaced with Analyst software for the mass spectrometer.
(§3) 11-point dosing series were made for each compound by serially diluting 1:3 or 1:4 in DMSO, with point 12 being a DMSO control. From the serial dilution plates, sample was transferred to a 384 wells assay plate (#781280, Greiner, Monroe, N.C.) using Labcyte Echo (Sunnyvale, Calif.), or Biosero ATS (San Diego, Calif.). The compounds were tested in duplicate. Column 12 was used for positive controls, and column 24 contained negative controls with no enzyme added. A compound from our internal collection, with inhibitory activity for JAK isoforms, was used as a reference compound. The final concentration of DMSO was ≤0.25% in a 20 μL reaction. […] The Tyk2 enzyme was pre-incubated with 2 mM ATP for 30 min prior to the reaction initiation. Immediately after the addition of the enzyme to the reaction mixture, the plate was centrifuged at 1000 rpm for 1 minute and incubated at 25° C. for 45 minutes for JAK 3 and 90 minutes for JAK1, JAK2 and Tyk2. The reaction was quenched by the addition of 20 μL of 0.5% TFA containing 0.15 μM of internal standard peptide using Multidrop Combi reagent dispenser (Thermo Scientific, Waltham, Mass.). […] After the quench, the assay plate was centrifuged at 3000 rpm for 3 minutes and sealed with pierceable aluminum foil (Cat #06644-001, Agilent) using a PlateLoc (Agilent Technologies, Santa Clara, Calif.). The plates then were transferred on to the RapidFire for the MS analysis. Compound inhibition was assessed by a decrease of the phosphorylated product levels in sample wells compared to the non-inhibited enzyme reaction.
(§4) The sample analysis on the RapidFire was performed using a mobile phase A consisting of Water/TFA/FA (100:0.01:0.1, v/v/v), a mobile phase B consisting of ACN/Water/TFA/FA (80:20:0.01:0.1, v/v/v). […] The samples were aspirated directly from the 384 assay plate and delivered onto RF-MS microscale solid-phase C4 extraction cartridge (Type A). The undesired component such as salt, cofactor, detergent and large protein were washed out and the retained analytes (substrate, product and IS) were coeluted directly onto the ABSiex Qtrap 4000 system.

JAK3-JH1JH2 = JAK3-JH1JH2 (Homo sapiens (Human), UniProt P52333); assay: Enzymatic inhibition assay (RapidFire HTMS), JAK3; conditions: 150 μM ATP, 40 μM substrate
Chain of JAK3-JH1JH2 (P52333 512-1124): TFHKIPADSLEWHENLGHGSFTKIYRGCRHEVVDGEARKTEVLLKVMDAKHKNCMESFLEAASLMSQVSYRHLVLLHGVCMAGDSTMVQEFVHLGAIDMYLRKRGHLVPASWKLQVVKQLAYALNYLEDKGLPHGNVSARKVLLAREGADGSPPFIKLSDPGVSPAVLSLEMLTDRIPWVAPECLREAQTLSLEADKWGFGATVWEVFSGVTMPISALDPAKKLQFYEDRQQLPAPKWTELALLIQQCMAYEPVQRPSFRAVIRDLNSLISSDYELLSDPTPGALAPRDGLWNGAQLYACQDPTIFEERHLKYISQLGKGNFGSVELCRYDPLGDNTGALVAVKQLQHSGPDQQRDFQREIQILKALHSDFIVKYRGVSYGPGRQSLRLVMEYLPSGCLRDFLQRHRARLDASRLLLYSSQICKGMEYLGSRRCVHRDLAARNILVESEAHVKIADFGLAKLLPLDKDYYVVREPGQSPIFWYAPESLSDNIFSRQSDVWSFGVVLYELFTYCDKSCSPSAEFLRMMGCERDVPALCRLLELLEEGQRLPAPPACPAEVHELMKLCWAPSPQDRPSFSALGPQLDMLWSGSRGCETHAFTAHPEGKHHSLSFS
From the text: as §1, §2
as §3, with “compound.” for “compound. The final concentration of DMSO was ≤0.25% in a 20 μL reaction.”
as §4

JAK2-JH1JH2 = JAK2-JH1JH2 (Homo sapiens (Human), UniProt O60674); assay: Enzymatic inhibition assay (RapidFire HTMS), JAK2; conditions: 30 μM ATP, 40 μM substrate
Chain of JAK2-JH1JH2 (O60674 532-1132): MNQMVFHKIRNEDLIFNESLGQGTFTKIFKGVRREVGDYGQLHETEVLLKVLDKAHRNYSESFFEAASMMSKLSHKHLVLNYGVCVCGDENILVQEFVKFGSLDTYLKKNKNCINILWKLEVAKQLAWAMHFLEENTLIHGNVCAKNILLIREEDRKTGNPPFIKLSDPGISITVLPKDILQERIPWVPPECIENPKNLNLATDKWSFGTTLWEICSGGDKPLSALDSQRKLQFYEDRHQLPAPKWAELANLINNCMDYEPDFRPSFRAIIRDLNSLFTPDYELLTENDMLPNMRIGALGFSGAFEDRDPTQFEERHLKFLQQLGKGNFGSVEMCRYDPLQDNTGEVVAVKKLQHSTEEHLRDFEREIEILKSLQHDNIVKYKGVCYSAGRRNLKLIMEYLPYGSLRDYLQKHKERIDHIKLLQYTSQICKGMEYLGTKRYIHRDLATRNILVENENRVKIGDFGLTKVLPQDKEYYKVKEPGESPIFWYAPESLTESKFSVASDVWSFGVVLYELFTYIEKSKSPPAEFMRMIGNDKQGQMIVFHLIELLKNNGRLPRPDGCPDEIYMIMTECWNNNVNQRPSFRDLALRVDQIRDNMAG
From the text: as §1, §2, §3, §4

JAK1-JH1JH2 = JAK1-JH1JH2 (Homo sapiens (Human), UniProt P23458); assay: Enzymatic inhibition assay (RapidFire HTMS), JAK1; conditions: 12.5 μM ATP, 200 μM substrate; read-out: JAK1-JH2JH1 IC50
Chain of JAK1-JH1JH2 (P23458 574-1154): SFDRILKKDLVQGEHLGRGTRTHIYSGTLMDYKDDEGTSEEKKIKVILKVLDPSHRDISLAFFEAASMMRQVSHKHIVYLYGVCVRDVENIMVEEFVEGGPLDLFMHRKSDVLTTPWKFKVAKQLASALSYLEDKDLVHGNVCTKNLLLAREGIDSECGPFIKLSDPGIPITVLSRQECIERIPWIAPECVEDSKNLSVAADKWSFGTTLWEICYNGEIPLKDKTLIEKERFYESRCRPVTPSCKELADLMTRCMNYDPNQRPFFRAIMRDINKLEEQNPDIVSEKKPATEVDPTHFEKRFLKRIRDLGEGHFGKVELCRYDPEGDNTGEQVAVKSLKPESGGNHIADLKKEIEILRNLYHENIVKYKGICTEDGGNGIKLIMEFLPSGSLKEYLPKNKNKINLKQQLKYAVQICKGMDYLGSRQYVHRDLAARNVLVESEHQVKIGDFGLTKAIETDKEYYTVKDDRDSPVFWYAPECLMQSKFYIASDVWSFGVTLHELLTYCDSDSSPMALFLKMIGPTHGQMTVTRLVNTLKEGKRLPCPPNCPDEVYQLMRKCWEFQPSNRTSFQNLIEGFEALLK
From the text: as §1, §2, §3, §4

Chain of Tyk2-JH1JH2 (P29597 580-1182 C936A/C1142A): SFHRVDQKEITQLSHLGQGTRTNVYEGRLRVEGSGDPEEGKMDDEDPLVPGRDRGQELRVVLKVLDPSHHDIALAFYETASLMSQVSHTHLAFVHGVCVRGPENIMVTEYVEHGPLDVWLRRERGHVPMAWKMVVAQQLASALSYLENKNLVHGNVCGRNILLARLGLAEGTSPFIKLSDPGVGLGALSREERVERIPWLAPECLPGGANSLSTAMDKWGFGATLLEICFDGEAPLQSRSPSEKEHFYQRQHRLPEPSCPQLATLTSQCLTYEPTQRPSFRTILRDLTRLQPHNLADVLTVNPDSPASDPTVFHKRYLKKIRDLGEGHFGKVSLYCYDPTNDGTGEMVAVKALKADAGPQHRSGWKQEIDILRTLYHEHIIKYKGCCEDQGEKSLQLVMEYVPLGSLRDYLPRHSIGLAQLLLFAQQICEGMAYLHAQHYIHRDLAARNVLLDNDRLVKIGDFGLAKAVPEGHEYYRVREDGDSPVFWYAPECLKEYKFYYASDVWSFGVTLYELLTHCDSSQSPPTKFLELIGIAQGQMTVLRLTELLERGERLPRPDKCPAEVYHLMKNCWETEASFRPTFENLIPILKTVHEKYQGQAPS

Row | IC50 (Tyk2-JH1JH2) | IC50 (JAK3-JH1JH2) | IC50 (JAK2-JH1JH2) | IC50 (JAK1-JH1JH2) | SMILES
1 | 1.6 nM | 48.9 nM | 0.3 nM | 0.1 nM | N#CC[C@H]1CC[C@H](n2c(-c3nc[nH]n3)nc3cnc4[nH]ccc4c32)CC1 [Ex. 9, 2-((1r,4r)-4-(2-(1H-1,2,4-Triazol-3-yl)imidazo[4,5-d]pyrrolo[2,3-b]pyridin-1(6H)-yl)cyclohexyl)acetonitrile]
2 | 2.8 nM | 43.7 nM | 1.8 nM | 0.1 nM | N#CC[C@H]1CC[C@H](n2c(CC(=O)NCc3ccncn3)nc3cnc4[nH]ccc4c32)CC1 [Ex. 14, 2-(1-((1r,4r)-4-(Cyanomethyl)cyclohexyl)-1,6-dihydroimidazo[4,5-d]pyrrolo[2,3-b]pyridin-2-yl)-N-(pyrimidin-4-ylmethyl)acetamide]
3 | 1.4 nM | 65.8 nM | 1.2 nM | 0.1 nM | [H]/N=C(\c1ccccc1)N(O)Cc1nc2cnc3[nH]ccc3c2n1[C@H]1CC[C@H](CC#N)CC1 [Ex. 17A, (E)-N-((1-((1r,4r)-4-(Cyanomethyl)cyclohexyl)-1,6-dihydroimidazo[4,5-d]pyrrolo[2,3-b]pyridin-2-yl)methyl)-N-hydroxybenzimidamide]
4 | 2.9 nM | 102 nM | 4.5 nM | 0.5 nM | [H]/N=C(/c1ccccc1)N(O)Cc1nc2cnc3[nH]ccc3c2n1[C@H]1CC[C@H](CC#N)CC1 [Ex. 17B, (Z)—N-((1-((1r,4r)-4-(Cyanomethyl)cyclohexyl)-1,6-dihydroimidazo[4,5-d]pyrrolo[23-b]pyridin-2-yl)methyl)-N-hydroxybenzimidamide]
5 | 6.4 nM | 540 nM | 35.3 nM | 0.1 nM | N#CC[C@H]1CC[C@H](n2c(CC(=O)N3CC(O)C3)nc3cnc4[nH]ccc4c32)CC1 [Ex. 18, 2-((1r,4r)-4-(2-(2-(3-Hydroxyazetidin-1-yl)-2-oxoethyl)imidazo[4,5-d]pyrrolo[2,3-b]pyridin-1(6H)-yl)cyclohexyl)acetonitrile]
6 | 1.9 nM | 20.5 nM | 1.2 nM | 0.1 nM | N#CC[C@H]1CC[C@H](n2c(CC(=O)Nc3ccccc3)nc3cnc4[nH]ccc4c32)CC1 [Ex. 20, 2-(1-((1r,4r)-4-(Cyanomethyl)cyclohexyl)-1,6-dihydroimidazo[4,5-d]pyrrolo[2,3-b]pyridin-2-yl)-N-phenylacetamide]
7 | 16.1 nM | 408 nM |  | 1.2 nM | CC(C)(C)COC(=O)NCc1nc2cnc3[nH]ccc3c2n1[C@H]1CC[C@H](CC#N)CC1 [Ex. 154, Neopentyl ((1-((1r,4r)-4-(Cyanomethyl)cyclohexyl)-1,6-dihydroimidazo[4,5-d]pyrrolo[2,3-b]pyridin-2-yl)methyl)carbamate]

Continued, compound first:

Row | SMILES | IC50 (Tyk2-JH1JH2) | IC50 (JAK3-JH1JH2) | IC50 (JAK2-JH1JH2) | IC50 (JAK1-JH1JH2)
8 | N#CC[C@H]1CC[C@H](n2c(CC(=O)Nc3ccc(CO)cc3)nc3cnc4[nH]ccc4c32)CC1 [Ex. 7, 2-(1-((1r,4r)-4-(Cyanomethyl)cyclohexyl)-1,6-dihydroimidazo[4,5-d]pyrrolo[2,3-b]pyridin-2-yl)-N-(4-(hydroxymethyl)phenyl)acetamide] | 0.9 nM | 13.3 nM | 0.6 nM | 0.1 nM
9 | N#CCc1ccc(NC(=O)Cc2nc3cnc4[nH]ccc4c3n2[C@H]2CC[C@H](CC#N)CC2)cc1 [Ex. 8, 2-(1-((1r,4r)-4-(Cyanomethyl)cyclohexyl)-1,6-dihydroimidazo[4,5-d]pyrrolo[2,3-b]pyridin-2-yl)-N-(4-(cyanomethyl)phenyl)acetamide] | 0.7 nM | 12.9 nM | 0.5 nM | 0.1 nM
10 | N#CC[C@H]1CC[C@H](n2c(CC(=O)N3CCC(O)CC3)nc3cnc4[nH]ccc4c32)CC1 [Ex. 12, 2-((1r,4r)-4-(2-(2-(4-Hydroxypiperidin-1-yl)-2-oxoethyl)imidazo[4,5-d]pyrrolo[2,3-b]pyridin-1(6H)-yl)cyclohexyl)acetonitrile] | 1.4 nM | 99.4 nM | 9.2 nM | 0.1 nM
11 | N#CCCS(=O)(=O)NCc1nc2cnc3[nH]ccc3c2n1[C@H]1CC[C@H](CC#N)CC1 [Ex. 13, 2-Cyano-N-((1-((1r,4r)-4-(cyanomethyl)cyclohexyl)-1,6-dihydroimidazo[4,5-d]pyrrolo[2,3-b]pyridin-2-yl)methyl)ethanesulfonamide] | 3.3 nM | 651 nM | 7.1 nM | 0.1 nM
12 | N#CC[C@H]1CC[C@H](NC(=O)Cc2nc3cnc4[nH]ccc4c3n2[C@H]2CC[C@H](CC#N)CC2)CC1 [Ex. 19, N-((1r,4r)-4-(Cyanomethyl)cyclohexyl)-2-(1-((1r,4r)-4-(cyanomethyl)cyclohexyl)-1,6-dihydroimidazo[4,5-d]pyrrolo[2,3-b]pyridin-2-yl)acetamide] | 4.4 nM | 31.8 nM | 2.4 nM | 0.1 nM
13 | N#CC[C@H]1CC[C@H](n2c(C(=O)N3CCC(O)(c4ccccn4)CC3)nc3cnc4[nH]ccc4c32)CC1 [Ex. 88, 2-((1r,4r)-4-(2-(4-Hydroxy-4-(pyridin-2-yl)piperidine-1-carbonyl)imidazo[4,5-d]pyrrolo[2,3-b]pyridin-1(6H)-yl)cyclohexyl)acetonitrile] | 49.5 nM |  | 43.4 nM | 0.4 nM
14 | CCOP(=O)(Cc1ccc(NC(=O)Cc2nc3cnc4[nH]ccc4c3n2[C@H]2CC[C@H](CC#N)CC2)cc1)OCC [Ex. 108, Diethyl 4-(2-(1-((1r,4r)-4-(cyanomethyl)cyclohexyl)-1,6-dihydroimidazo[4,5-d]pyrrolo[2,3-b]pyridin-2-yl)acetamido)benzylphosphonate] | 7.1 nM |  | 3.8 nM | 0.6 nM
15 | C[Si](C)(C)[C@H]1CC[C@@H](NC(=O)Cc2nc3cnc4[nH]ccc4c3n2[C@H]2CC[C@H](CC#N)CC2)CC1 [Ex. 135, 2-(1-((1r,4r)-4-(Cyanomethyl)cyclohexyl)-1,6-dihydroimidazo[4,5-d]pyrrolo[2,3-b]pyridin-2-yl)-N-((1S,4S)-4-(trimethylsilyl)cyclohexyl)acetamide] | 8.7 nM |  | 4 nM | 0.8 nM
16 | C[Si](C)(C)[C@H]1CC[C@H](NC(=O)Cc2nc3cnc4[nH]ccc4c3n2[C@H]2CC[C@H](CC#N)CC2)CC1 [Ex. 167, 2-(1-((1r,4r)-4-(Cyanomethyl)cyclohexyl)-1,6-dihydroimidazo[4,5-d]pyrrolo[2,3-b]pyridin-2-yl)-N-((1r,4r)-4-(trimethylsilyl)cyclohexyl)acetamide] | 25.5 nM |  | 20.8 nM | 1.9 nM
